Laboratory results: publication PMC12543186, “Discovery of C-12 dithiocarbamate andrographolide analogue as a novel antioxidant and α-glucosidase inhibitors: In vitro and in silico studies” (PLOS One, 2025)
Read-outs that look alike come from different tables or passages of the source.

Legend:
[1] = biological target: T1, α-glucosidase from Saccharomyces cerevisiae (Saccharomyces cerevisiae, UniProt P38158); experiment: α-glucosidase inhibition activity (p-NPG substrate); format: biochemical; details: for α-glucosidase inhibition (%), Mean: 2000 μM
Procedure: An in vitro α-glucosidase inhibitory assay is commonly used to evaluate the inhibitory effects of various compounds on the enzyme α-glucosidase, which is involved in carbohydrate digestion. Inhibiting this enzyme results in slower glucose absorption, which can be beneficial for managing postprandial blood sugar levels in diabetic conditions. This assay was modified from the methods described by Yusuf et al.. The procedure involved mixing 25 μL of the sample, 150 μL of phosphate buffer saline (PBS) pH 7.4, and 75 μL of 10 mM p-NPG. The mixture was incubated at 37 °C for 10 min. Next, 50 μL of α-glucosidase enzyme from Saccharomyces cerevisiae at a concentration of 0.1 U/mL was added, then incubated at 37 °C for 10 min. To terminate the reaction, […] of 0.1 M sodium carbonate (Na2CO3) was added to the mixture. The absorbance was measured using a microplate reader. The percentage of α-glucosidase inhibition was calculated as follows:
α−glucosidase inhibition(%)=(1–{A−B/C−D})×100
Where A was the absorbance of the sample with α-glucosidase enzyme, B was the absorbance of the sample, C was the absorbance of vehicle with α-glucosidase enzyme, and D was the absorbance of the vehicle (blank).

[2] = DPPH radical scavenging activity; details: 500 μM
Procedure: The DPPH radical scavenging activity was conducted to thoroughly evaluate the antioxidant potential of andrographolide and its analogues. We modified the assay employing the Sekhon-Loodu and Rupasinghe methods. A DPPH solution was prepared in absolute ethanol, with a concentration of 200 μM. Next, 100 μL of DPPH solution was mixed with 100 μL of the sample in a 96-well plate. The mixture was then incubated for 30 minutes at room temperature. Following incubation, we measured the absorbance at 517 nm using a microplate reader. We tested the antioxidant properties of the compounds at a concentration of 500 μM to detect the weak-to-moderate antioxidants while addressing solubility limitations and minimizing assay artefacts, consistent with previous research. The DPPH radical scavenging activity was precisely expressed as a percentage of DPPH inhibition (% DPPH Inhibition). We selected candidates based on their higher inhibitory activity and prepared various concentrations of these candidates for testing. α-tocopherol, also known as vitamin E, was employed as a positive control. The % DPPH Inhibition was calculated as follows:
%DPPH Inhibition=(1–{A/B})×100
Where A was the absorbance of the DPPH with sample, and B was the absorbance of the DPPH with vehicle (blank).

[3] = Ferric reducing antioxidant power (FRAP) activity; details: 500 μM; third replicate column
Procedure: The FRAP activity assay was performed to assess the reducing power ability to reduce ferric ions (Fe^3+) to ferrous ions (Fe^2+), following the established method described by Sekhon-Loodu and Rupasinghe. The FRAP reagent was freshly prepared by combining 300 mM acetate buffer pH 3.6, 10 mM 2,4,6- Tri(2-pyridyl)-s-triazine (TPTZ) dissolved in 40 mM HCl, and 20 mM FeCl3 in a ratio of 10:1:1. Ferrous sulfate (FeSO4) was used as a standard, with ascorbic acid serving as a control. The assay was conducted in a 96-well plate by mixing 20 μL of the sample, standard, or positive control with 80 μL of the FRAP solution. The mixture was then incubated for 20 minutes at room temperature, after which we measured absorbance at 595 nm using a microplate reader. The results were expressed as FRAP value, reported as ascorbic acid equivalent in μM (AAE, μM), providing a definitive measure of reducing power.

[4] = biological target: T1, α-glucosidase from Saccharomyces cerevisiae; experiment: Surface plasmon resonance, steady-state affinity; format: binding; details: SPR steady-state affinity model, 25 °C, immobilized yeast α-glucosidase; read-out: dissociation constant (KD)
Procedure: All experiments were conducted using a Biacore X100 instrument at 25 °C with a running buffer of 1X PBS-P+ (10 mM phosphate buffer pH 7.4, 2.7 mM KCl, 137 mM NaCl, 0.05% Tween 20) supplemented with 5% DMSO. Compounds were initially dissolved in DMSO to a final concentration of 14 mM. The stock solution was then diluted to 700 μM in 1.05X PBS-P+ to prepare a compound solution containing 1X PBS-P+ with 5% DMSO. This compound solution was utilized to prepare the required concentrations for injections into the Biacore system. α-glucosidase from Saccharomyces cerevisiae was immobilized onto a CM5 chip following standard amine coupling procedures: the CM5 chip, containing channel 1 and 2, was activated with an injection of NHS/EDC mixture with a contact time of 540 s at a flow rate of 10 µL/min. This was followed by multiple injections of α-glucosidase dissolved in 10 mM sodium acetate pH 4.0 (50 µg/mL) onto channel 2, also with a contact time of 540 s at a flow rate of 10 µL/min. Both channels were inactivated by an injection of 1M ethanolamine at a flow rate of 10 µL/min for 540 s. An immobilization level of 3300 RU of α-glucosidase was achieved.
Multi-cycle affinity studies were conducted with a 100 s association phase and a 60 s dissociation phase, using a flow rate of 30 µL/min. Compounds were injected onto the chip at increasing concentrations of 7, 21, 70, 210, and 490 μM. Binding measurements were taken after reference subtraction of channel 1 (no immobilized α-glucosidase) and after subtracting the results from a blank injection with zero analyte concentration. All data evaluation was performed with Biacore X100 evaluation software (version 2.0).

[5] = read-out: α-glucosidase inhibition (%), Mean, 31.2 μM
[6] = read-out: α-glucosidase inhibition (%), Mean, 62.5 μM
[7] = read-out: α-glucosidase inhibition (%), Mean, 125 μM
[8] = read-out: α-glucosidase inhibition (%), Mean, 250 μM
[9] = read-out: α-glucosidase inhibition (%), Mean, 500 μM
[10] = read-out: α-glucosidase inhibition (%), Mean, 1000 μM
[11] = read-out: α-glucosidase inhibition (%), Mean, 2000 μM
[12] = read-out: α-glucosidase inhibition (%), replicate 1, 31.2 μM, first replicate column
[13] = read-out: α-glucosidase inhibition (%), replicate 1, 62.5 μM, first replicate column
[14] = read-out: α-glucosidase inhibition (%), replicate 1, 125 μM, first replicate column
[15] = read-out: α-glucosidase inhibition (%), replicate 1, 250 μM, first replicate column
[16] = read-out: α-glucosidase inhibition (%), replicate 1, 500 μM, first replicate column
[17] = read-out: α-glucosidase inhibition (%), replicate 1, 1000 μM, first replicate column
[18] = read-out: α-glucosidase inhibition (%), replicate 1, 2000 μM, first replicate column
[19] = read-out: α-glucosidase inhibition (%), replicate 2, 31.2 μM, second replicate column
[20] = read-out: α-glucosidase inhibition (%), replicate 2, 62.5 μM, second replicate column
[21] = read-out: α-glucosidase inhibition (%), replicate 2, 125 μM, second replicate column
[22] = read-out: α-glucosidase inhibition (%), replicate 2, 250 μM, second replicate column
[23] = read-out: α-glucosidase inhibition (%), replicate 2, 500 μM, second replicate column
[24] = read-out: α-glucosidase inhibition (%), replicate 2, 1000 μM, second replicate column
[25] = read-out: α-glucosidase inhibition (%), replicate 2, 2000 μM, second replicate column
[26] = read-out: α-glucosidase inhibition (%), replicate 3, 31.2 μM, third replicate column
[27] = read-out: α-glucosidase inhibition (%), replicate 3, 62.5 μM, third replicate column
[28] = read-out: α-glucosidase inhibition (%), replicate 3, 125 μM, third replicate column
[29] = read-out: α-glucosidase inhibition (%), replicate 3, 250 μM, third replicate column
[30] = read-out: α-glucosidase inhibition (%), replicate 3, 500 μM, third replicate column
[31] = read-out: α-glucosidase inhibition (%), replicate 3, 1000 μM, third replicate column
[32] = read-out: α-glucosidase inhibition (%), replicate 3, 2000 μM, third replicate column

T1 sequence (P38158 whole entry): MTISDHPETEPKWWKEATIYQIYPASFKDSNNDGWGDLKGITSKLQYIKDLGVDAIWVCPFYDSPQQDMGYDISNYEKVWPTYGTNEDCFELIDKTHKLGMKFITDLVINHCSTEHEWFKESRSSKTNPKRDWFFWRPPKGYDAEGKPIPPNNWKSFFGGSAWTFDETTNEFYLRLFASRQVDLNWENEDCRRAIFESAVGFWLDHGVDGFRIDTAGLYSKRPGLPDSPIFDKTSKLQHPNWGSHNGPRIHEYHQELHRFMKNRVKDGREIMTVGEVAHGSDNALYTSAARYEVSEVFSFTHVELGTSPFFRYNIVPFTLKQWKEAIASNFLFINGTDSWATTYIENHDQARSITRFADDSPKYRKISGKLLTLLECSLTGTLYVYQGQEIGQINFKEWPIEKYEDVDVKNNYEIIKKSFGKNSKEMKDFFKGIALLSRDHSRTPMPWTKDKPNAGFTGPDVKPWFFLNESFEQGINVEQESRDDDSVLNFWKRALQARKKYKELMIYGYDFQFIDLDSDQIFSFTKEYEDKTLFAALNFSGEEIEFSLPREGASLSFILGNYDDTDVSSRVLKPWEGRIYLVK

SMILES | α-glucosidase inhibition (%), Mean [1] [%] | inhibition at 31.2 µM [1, 5] [%] | inhibition at 62.5 µM [1, 6] [%] | inhibition at 125 µM [1, 7] [%] | inhibition at 250 µM [1, 8] [%] | inhibition at 500 µM [1, 9] [%] | inhibition at 1000 µM [1, 10] [%] | inhibition at 2000 µM [1, 11] [%] | inhibition at 31.2 µM [1, 12] [%] | inhibition at 62.5 µM [1, 13] [%] | inhibition at 125 µM [1, 14] [%] | inhibition at 250 µM [1, 15] [%] | inhibition at 500 µM [1, 16] [%] | inhibition at 1000 µM [1, 17] [%] | inhibition at 2000 µM [1, 18] [%] | inhibition at 31.2 µM [1, 19] [%] | inhibition at 62.5 µM [1, 20] [%] | inhibition at 125 µM [1, 21] [%] | inhibition at 250 µM [1, 22] [%] | inhibition at 500 µM [1, 23] [%] | further results
C[C@H]1O[C@H](O[C@H]2[C@H](O)[C@@H](O)[C@@H](O[C@H]3[C@H](O)[C@@H](O)C(O)O[C@@H]3CO)O[C@@H]2CO)[C@H](O)[C@@H](O)[C@@H]1N[C@H]1C=C(CO)[C@@H](O)[C@H](O)[C@H]1O (some centres unmarked) [Acarbose, acarbose] | 38.3925 | 6.67 | 3.73 | 7.12 | 10.6 | 31.1 | 35.9 | 38.4 | 5.58 | 3.74 | 6.97 | 10.5 | 31.2 | 36 | 37.5 | 5.89 | 3.63 | 7.34 | 10.7 | 31.1 | inhibition at 1000 µM [1, 24]: 36.7%; inhibition at 2000 µM [1, 25]: 39.4%; inhibition at 31.2 µM [1, 26]: 8.54%; inhibition at 62.5 µM [1, 27]: 3.82%; inhibition at 125 µM [1, 28]: 7.06%; inhibition at 250 µM [1, 29]: 10.5%; inhibition at 500 µM [1, 30]: 31.1%; inhibition at 1000 µM [1, 31]: 34.8%; inhibition at 2000 µM [1, 32]: 38.3%
C=C1CC[C@@H]2[C@](C)(CO)[C@H](O)CC[C@@]2(C)[C@@H]1C/C=C1/C(=O)OC[C@H]1O [Andrographolide] | 21.1432 | 0.0652 | -0.749 | 4.88 | 1.93 | 11.9 | 13.6 | 21.1 | -0.3 | 2.19 | 6.76 | -2.97 | 13.1 | 17.1 | 22.5 | 1.47 | 3.06 | 3.19 | 3.6 | 12 | % Inhibition (DPPH), replicate 1 ([2]; first replicate column): 17.9296%; % DPPH Inhibition, Mean ([2]; mean of n = 3): 14.4808%; % Inhibition (DPPH), replicate 2 ([2]; second replicate column): 11.6610%; % Inhibition (DPPH), replicate 3 ([2]; third replicate column): 13.8517%; FRAP, Ascorbic acid equivalent, replicate 3 [3]: -2.0327 AAE, μM; Kd [4]: 137 ± 85.1 µM; IC50 ([1]; concentration range up to 2000 μM, read-out: IC50 (α-glucosidase inhibitory activity)): > 2000 µM; inhibition at 1000 µM [1, 24]: 13.5%; inhibition at 2000 µM [1, 25]: 21%; inhibition at 31.2 µM [1, 26]: -0.976%; inhibition at 62.5 µM [1, 27]: -7.49%; inhibition at 125 µM [1, 28]: 5.68%; inhibition at 250 µM [1, 29]: 5.16%; inhibition at 500 µM [1, 30]: 10.6%; inhibition at 1000 µM [1, 31]: 11%; inhibition at 2000 µM [1, 32]: 19.9%
